Our source for the IC50 values is patent US20220073536A1 (Rigel Pharmaceuticals, Inc., priority 2003, published 2022).

Experiment [1] deals with cultured human mast cells (CHMC). Kind of experiment: CHMC low cell density IgE activation: tryptase assay. It is filed as cell-based. The following applies: IgE activation. In a few lines:
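Tryptase release, fluorogenic substrate, 30 min RT. Prior anti-IgE stimulation of CHMC, 30 min, 37 °C, after 1 hr preincubation at 1000–1500 cells/well in MT; unstimulated wells received MT.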

Experiment [2] shares this test system. The experiment in a line: CHMC low cell density ionomycin activation: tryptase assay. It is filed as cell-based. The following applies: read-out: LD Tryptase, CHMC, Iono, 3 pt.
Where [3] appears, read: low cell density, 3 pt, read-out: LD Tryptase, CHMC, IgE, 3 pt.
[4] abbreviates: low cell density CHMC, tryptase release, 3 point, read-out: LD Tryptase, CHMC, IgE, 3 pt.
Where [5] appears, read: low cell density CHMC, tryptase, 3 pt, read-out: LD Tryptase, CHMC, IgE, 3 pt.
[6] abbreviates: low cell density CHMC, tryptase, 8 pt, read-out: LD Tryptase, CHMC, IgE, 8 pt.
Where [7] appears, read: low cell density CHMC, tryptase, 3 pt.
Where [8] appears, read: Homo sapiens, Mast cell, low cell density CHMC, tryptase release, 3 pt, read-out: LD Tryptase, CHMC, IgE, 3 pt.
The mark [9] stands for this setting: Homo sapiens, Mast cell, low cell density CHMC, tryptase release, 8 pt, read-out: LD Tryptase, CHMC, IgE, 8 pt.
Setting [10] is: Homo sapiens, Mast cell, low cell density CHMC, tryptase release, 3 pt.
Setting [11] is: low cell density CHMC, tryptase release, 3 pt, read-out: LD Tryptase, CHMC, IgE, 3 pt.
[12] abbreviates: low cell density CHMC, tryptase release, 8 pt, read-out: LD Tryptase, CHMC, IgE, 8 pt.
[13] abbreviates: low cell density CHMC, tryptase release, 3 pt.
The mark [14] stands for this setting: low cell density, 8 pt, read-out: LD Tryptase, CHMC, IgE, 8 pt.

Structures can show the parent of a compound that is named as a salt.

In the case of “2-Chloro-N4- (3,5-dichloro-4-methoxyphenyl-5-fluoro-N4-methyl-4-pyrimidineamine [Compound 491]”, the IC50 in experiment [1] (setting [3]) is over 10 µM; in experiment [2] (low cell density, 3 pt) it was over 10 µM.
On to “2-Chloro-N4-[3-chloro-4- (N-methylamino)carbonylmethyleneoxyphenyl]-5-fluoro-N4-methyl-4-pyrimidineamine [Compound 661]”, for which the IC50 was over 10 µM in experiment [1] (setting [4]) and over 10 µM in experiment [2] (low cell density CHMC, tryptase release, 3 point).
“5-Fluoro-N4- (4-hydroxy-3,4-dihydro-2H-1-benzopyran-6-yl)-N2-[4- (oxazol-5-yl)phenyl]-2,4-pyrimidinediamine [Compound 1290]”: the IC50 was under 10 µM in experiment [1] (setting [5]), under 10 µM in experiment [1] (setting [6]) and over 10 µM in experiment [2] (setting [7]).
Regarding `NC1CCOc2ccc(Nc3nc(Nc4cccc(-c5cnco5)c4)ncc3F)cc21` (racemic) [Compound 1292, (R,S)-N4-[4-Amino-3,4-dihydro-2H-1-benzopyran-6-yl]-5-fluoro-N2-[3-(oxazol-5-yl)phenyl]-2,4-pyrimidinediamine], the figures for the IC50 in experiment [1] (setting [5]), in experiment [1] (setting [6]) and in experiment [2] (setting [7]) were under 10 µM, under 10 µM and over 10 µM, respectively.
As for `CNC(=O)CNC(=O)c1ccc(Nc2ncc(F)c(Nc3ccc4c(c3)C(NC(=O)OC(C)(C)C)CCO4)n2)cc1` (racemic) [Compound 1298, (R,S)-N4-[4-(N-tert-Butoxycarbonyl)amino-3,4-dihydro-2H-1-benzopyran-6-yl]-5-fluoro-N2-[4-[N-(N-methylamino)carbonylmethylene]aminocarbonylphenyl]-2,4-pyrimidinediamine], the IC50 in experiment [1] (setting [5]) was under 10 µM; in experiment [2] (setting [7]) it was over 10 µM.
As to `COc1cc(C)c(Nc2ncc(F)c(Nc3ccc4c(c3)NC(=O)[C@H](C)O4)n2)cc1Cl` [Compound 214], the IC50 is under 10 µM in experiment [1] (setting [8]), under 10 µM in experiment [1] (setting [9]) and over 10 µM in experiment [2] (setting [10]).
As to `COc1cc(OC)c(-c2nc(N)nc(Nc3ccc4c(c3)NC(=O)[C@H](C)O4)c2F)cc1Cl` [Compound 215], the IC50 is under 10 µM in experiment [1] (setting [8]), under 10 µM in experiment [1] (setting [9]) and over 10 µM in experiment [2] (setting [10]).
As to `COc1cc(C)c(Nc2ncc(F)c(Nc3ccc4c(c3)NC(C)(C)CO4)n2)cc1Cl` [Compound 216, N2-(3-Chloro-4-methoxy-6-methylphenyl)-N4-(3,4-dihydro-3,3-dimethyl-2H,4H-benz[1,4]oxazin-6-yl)-5-fluoro-2,4-pyrimidinediamine], the values for the IC50 in experiment [1] (setting [11]), in experiment [1] (setting [12]) and in experiment [2] (setting [13]) were under 10 µM, under 10 µM and over 10 µM, respectively.
Consider `Fc1cnc(Nc2cccc(-c3ncco3)c2)nc1Nc1ccc2c(c1)NCCO2` [Compound 217, N4-(3,4-Dihydro-2H,4H-benz[1,4]oxazin-6-yl)-5-fluoro-N2-[3-(oxazol-2-yl)phenyl]-2,4-pyrimidinediamine], for which the IC50 in experiment [1] (setting [11]) is under 10 µM; in experiment [1] (setting [12]) it was under 10 µM; in experiment [2] (setting [13]), over 10 µM.
In the case of `CC1(C)COc2ccc(Nc3nc(Nc4cccc(-c5ncco5)c4)ncc3F)cc2N1` [Compound 218, N4-(3,4-Dihydro-3,3-dimethyl-2H,4H-benz[1,4]oxazin-6-yl)-5-fluoro-N2-[3-(oxazol-2-yl)phenyl]-2,4-pyrimidinediamine], the IC50 is under 10 µM in experiment [1] (setting [11]), under 10 µM in experiment [1] (setting [12]) and over 10 µM in experiment [2] (setting [13]).
In the case of `O=C1COc2ccc(Nc3nc(Nc4cccc(-c5ncco5)c4)ncc3F)cc2N1` [Compound 219], the IC50 in experiment [1] (setting [8]) is under 10 µM; in experiment [1] (setting [9]) it was under 10 µM; in experiment [2] (setting [10]) it was over 10 µM.
Turning to `O=C1COc2cc(Nc3nc(Nc4cccc(-c5ncco5)c4)ncc3F)ccc2N1` [Compound 220], the IC50 in experiment [1] (setting [8]) is under 10 µM; in experiment [1] (setting [9]), under 10 µM; in experiment [2] (setting [10]), over 10 µM.
Turning to `CNC(=O)COc1cccc(Nc2ncc(F)c(Nc3ccc4c(n3)NC(=O)C(C)(C)O4)n2)c1` [Compound 992, N4-(2,2-Dimethyl-3-oxo-4H-5-pyrid[1,4]oxazin-6-yl)-5-fluoro-N2-[3-(N-methylamino)carbonylmethyleneoxyphenyl]-2,4-pyrimidinediamine (+)-Camphorsulfonic Acid Salt], the IC50 in experiment [2] (low cell density, 3 pt) was over 10 µM.
Take “N4- (2,2-Dimethyl-3-oxo-4H-5-pyrid[1,4]oxazin-6-yl)-5-fluoro-N2- (4-methoxycarbonylphenyl)-2,4-pyrimidinediamine [Compound 1313]”: the IC50 in experiment [1] (setting [5]) was under 10 µM.
“N4- (2,2-Dimethyl-3-oxo-4H-5-pyrid[1,4]oxazin-6-yl)-5-fluoro-[1-(2-hydroxymethyl)-2-trifluoromethylbenzimidazol-5-yl]-2,4-pyrimidinediamine [Compound 924]”: the IC50 in experiment [1] (setting [14]) was under 10 µM.
Take “N4- (2,2-Dimethyl-3-oxo-4H-5-pyrid[1,4]oxazin-6-yl)-N2- (1-methyl-2-trifluoromethylbenzimidazol-5-yl)-2,4-pyrimidinediamine [Compound 915]”: in experiment [1] (setting [14]), the IC50 was under 10 µM.
As for “N4- (2,2-Dimethyl-3-oxo-4H-N4-oxo-5-pyrido[1,4]oxazin-6-yl)-5-fluoro-N2- (3,4,5-trimethoxyphenyl)-2,4-pyrimidinediamine [Compound 1340]”, the IC50 in experiment [1] (setting [5]) and in experiment [1] (setting [6]) was under 10 µM in each case.
With “N4- (2,2-Dimethyl-3-oxo-4H-benz[1,4]oxazin-6-yl)-5-fluoro-N2-{1-methyl-2-[ (methylsulfonyl)methyl]benzimidazol-5-yl}-2,4-pyrimidinediamine [Compound 967]”, the IC50 in experiment [1] (setting [3]) and in experiment [1] (setting [14]) was under 10 µM each time.
As for “N4- (2,2-Dimethyl-3-oxo-4H-benz[1,4]oxazin-6-yl)-5-fluoro-[1-(2-hydroxymethyl)-2-trifluoromethylbenzimidazol-5-yl]-2,4-pyrimidinediamine [Compound 922]”, the IC50 in experiment [1] (setting [14]) is under 10 µM.
For “N4- (3,4-Dichlorophenyl)-5-fluoro-N2- (4-[N-[methoxycarbonylmethylene]aminocarbonyl]phenyl)-N4-methyl-2,4-pyrimidinediamine [Compound 1348]”, in experiment [1] (setting [5]), the IC50 is under 10 µM.
Take “N4- (3,4-Dichlorophenyl)-5-fluoro-N2-[2- (4-morpholinomethyl)-1H-benzimidazol-5-yl]-2,4-pyrimidinediamine [Compound 959]”: the IC50 in experiment [1] (setting [14]) was under 10 µM.
Turning to “N4- (3,4-Dichlorophenyl)-5-fluoro-[1- (2-hydroxymethyl)-2-trifluoromethylbenzimidazol-5-yl]-2,4-pyrimidinediamine [Compound 920]”, the IC50 in experiment [1] (setting [3]) and in experiment [1] (setting [14]) was under 10 µM each time.
As for “N4- (3,4-Ethylenedioxyphenyl)-5-fluoro-N2-[3,4-(tetrafluoroethylenedioxy)phenyl]-2,4-pyrimidinediamine [Compound 363]”, the IC50 in experiment [1] (setting [5]) was under 10 µM.
Consider “N4- (3-Chloro-4-methoxyphenyl)-5-fluoro-[1- (2-hydroxymethyl)-2-trifluoromethylbenzimidazol-5-yl]-2,4-pyrimidinediamine [Compound 921]”, for which the IC50 in experiment [1] (setting [3]) and in experiment [1] (setting [14]) was under 10 µM each time.
With “N4- (5-Amino-1,2,4-triazol-3-yl)-5-fluoro-N2-[3- (N-methylamino)carbonylmethyleneoxyphenyl]-2,4-pyrimidinediamine [Compound 1251]”, in experiment [1] (setting [6]), the IC50 was under 10 µM.
Take “N4- (Aminocarbonylphenyl)-5-fluoro-N2- (4-[N-[methoxycarbonylmethylene]aminocarbonyl]phenyl)-2,4-pyrimidinediamine [Compound 1338]”: the IC50 in experiment [1] (setting [5]) and in experiment [1] (setting [6]) was under 10 µM each time.
For “N4- (Cyclopentyl)-5-fluoro-N2- (4-[N-[methoxycarbonylmethylene]aminocarbonyl]phenyl)-2,4-pyrimidinediamine [Compound 1351]”, the IC50 in experiment [1] (setting [5]) and in experiment [1] (setting [6]) was under 10 µM each time.
For the compound “N4-[3,4- (Difluoromethylenedioxy)phenyl]-5-fluoro-N2- (3,4,5-trimethoxyphenyl)-2,4-pyrimidinediamine [Compound 561]”, the IC50 in experiment [1] (setting [14]) is under 10 µM.
For “N4-[3,4- (Difluoromethylenedioxy)phenyl]-5-fluoro-N2-[2- (N-methylamino)carbonylindol-7-yl]-2,4-pyrimidinediamine [Compound 570]”, the IC50 in experiment [1] (setting [4]) is under 10 µM.
Regarding “N4-[3,4- (Difluoromethylenedioxy)phenyl]-N2- (3,5-dimethoxyphenyl)-5-fluoro-2,4-pyrimidinediamine [Compound 562]”, the IC50 in experiment [1] (setting [3]) and in experiment [1] (setting [14]) was under 10 µM each time.
As to “N4-[3,4- (Difluoromethylenedioxy)phenyl]-N2- (3,5-dimethylphenyl)-5-fluoro-2,4-pyrimidinediamine [Compound 563]”, the IC50 in experiment [1] (setting [3]) and in experiment [1] (setting [14]) was under 10 µM in each case.
In the case of “N4-[benzoxathiazin-3 (4H)-one-6-yl]2-chloro-5-fluoro-4-pyrimidineamine [Compound 319]”, in experiment [1] (setting [11]), the IC50 was under 10 µM.
